Experiments:
[1] = target: T1, Purine nucleoside phosphorylase (PNP) (Homo sapiens, UniProt P00491); design: method as in PMID 5653179, PMID 121041; settings: cited from earlier work
T1 construct: purchased Sigma-Aldrich; host or cells: E. coli
T1 sequence (P00491 1-289): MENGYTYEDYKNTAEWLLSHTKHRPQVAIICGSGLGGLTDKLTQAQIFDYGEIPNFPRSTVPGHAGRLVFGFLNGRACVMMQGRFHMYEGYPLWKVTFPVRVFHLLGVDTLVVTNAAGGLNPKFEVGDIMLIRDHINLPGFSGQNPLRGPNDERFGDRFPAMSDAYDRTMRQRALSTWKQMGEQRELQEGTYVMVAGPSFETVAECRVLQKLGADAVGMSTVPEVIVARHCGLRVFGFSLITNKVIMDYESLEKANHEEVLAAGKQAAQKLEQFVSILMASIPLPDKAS

XDH = XDH (Bos taurus, UniProt P80457); settings: 2 μM hypoxanthine, 500 μM β-NAD+, 6 nM XDH, pH 8.5, 25 °C
Experimental: The rate of NAD^+ conversion to NADH was measured at A340 nm.
(§1) Bovine milk was obtained from the animal farm of the Nippon Veterinary and Life Science University. […] The dehydrogenase form of the enzyme (XDH) was obtained by reacting XO immediately upon purification with 5 mM DTT at pH 8.5, 25 °C for 1 h. XO and XDH assays were carried out at 25 °C under aerobic conditions. […] A total of 500 μM β-NAD^+ was added to the same reaction solution for XDH activity. Physiological conditions such as pH 7.4 (0.1 M potassium phosphate buffer (KPB), 0.2 mM EDTA) and the addition of 50 μM β-NADH were also used. The activity was measured by following 295 nm and 340 nm on a UV-1800 or UV1900i spectrophotometer. […] In addition, the enzyme reaction solution was quenched with perchloric acid and neutralized with K2CO3, with products analyzed using HPLC as described below. Spectrophotometric data were analyzed using UV-Probe software Ver. 2.70 or LabSolutions UV-Vis Ver. […] Kinetic parameters were determined from nonlinear curve fits of raw data using GraphPad Prism 9 software.

xanthine oxidase = test system: xanthine oxidase; design: method as in Graham et al. 64; settings: ref Graham et al. 64; cited from earlier work
XO = XO (Bos taurus, UniProt P80457); assay: initial-velocity steady-state kinetics of XO, O2 as electron acceptor; format: biochemical, bovine; design: Bovine milk was obtained from the animal farm of the Nippon Veterinary and Life Science University; from tissue; host or cells: bovine milk
Experimental: as §1
A295 indicates the concentration of uric acid yielded by XOR. […] A295 indicates the concentration of uric acid yielded by XOR. Figure S2. The XOR inhibition mode of oxypurinol.A–G, Lineweaver-Burk plots were generated to visualize data and estimated the inhibition patterns. Data are representative of least two independent experiments. […] Figure S3. […] B, mode of inhibition of oxypurinol on the inosine degradation reaction of PNP. […] 0, 250, 375, 500, 750 and 1000 μM of oxypurinol were used. […] The rate of NAD^+ conversion to NADH was measured at A340 nm.

Chain of XO (P80457 whole entry): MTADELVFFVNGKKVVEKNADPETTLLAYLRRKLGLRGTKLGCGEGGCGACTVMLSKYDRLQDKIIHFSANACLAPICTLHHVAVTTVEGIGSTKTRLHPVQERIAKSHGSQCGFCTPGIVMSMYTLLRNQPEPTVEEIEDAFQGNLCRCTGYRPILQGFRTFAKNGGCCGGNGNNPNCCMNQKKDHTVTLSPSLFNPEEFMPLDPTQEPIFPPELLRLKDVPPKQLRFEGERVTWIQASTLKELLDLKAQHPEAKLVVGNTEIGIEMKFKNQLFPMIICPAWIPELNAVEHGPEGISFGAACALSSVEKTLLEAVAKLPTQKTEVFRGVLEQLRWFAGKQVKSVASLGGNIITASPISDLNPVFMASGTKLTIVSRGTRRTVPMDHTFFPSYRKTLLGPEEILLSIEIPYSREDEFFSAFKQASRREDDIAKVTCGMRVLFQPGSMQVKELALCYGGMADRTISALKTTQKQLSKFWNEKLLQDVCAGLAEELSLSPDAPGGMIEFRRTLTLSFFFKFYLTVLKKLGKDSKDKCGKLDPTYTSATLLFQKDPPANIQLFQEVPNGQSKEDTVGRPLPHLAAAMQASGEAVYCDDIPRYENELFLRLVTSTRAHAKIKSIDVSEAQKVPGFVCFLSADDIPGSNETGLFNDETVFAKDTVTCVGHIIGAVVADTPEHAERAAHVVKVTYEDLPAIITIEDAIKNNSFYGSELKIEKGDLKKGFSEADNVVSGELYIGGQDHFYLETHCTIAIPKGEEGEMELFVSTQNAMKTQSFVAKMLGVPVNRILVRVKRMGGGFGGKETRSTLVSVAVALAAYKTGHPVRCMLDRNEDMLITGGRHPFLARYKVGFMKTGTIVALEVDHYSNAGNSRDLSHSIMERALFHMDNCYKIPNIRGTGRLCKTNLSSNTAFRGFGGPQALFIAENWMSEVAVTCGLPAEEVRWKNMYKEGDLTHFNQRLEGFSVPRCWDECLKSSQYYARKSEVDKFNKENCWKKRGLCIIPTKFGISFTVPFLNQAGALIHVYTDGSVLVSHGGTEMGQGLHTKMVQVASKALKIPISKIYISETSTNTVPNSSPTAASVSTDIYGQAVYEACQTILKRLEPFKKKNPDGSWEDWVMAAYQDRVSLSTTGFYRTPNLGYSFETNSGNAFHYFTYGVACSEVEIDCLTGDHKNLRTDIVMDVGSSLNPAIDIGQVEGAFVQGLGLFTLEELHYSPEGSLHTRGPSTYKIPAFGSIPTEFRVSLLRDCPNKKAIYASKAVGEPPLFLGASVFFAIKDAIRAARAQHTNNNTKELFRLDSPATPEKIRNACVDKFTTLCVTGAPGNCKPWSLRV
Chain of XDH (P80457 whole entry): as above

Row | Structure (SMILES) | Ki [1] [µM] | concentration above which NADH formation is immediately inhibited (XDH) | oxypurinol concentration at which xanthine oxidase is maximally inhibited (xanthine oxidase) [µM] | Ki (XO) [µM] | Types of inhibition (XO; XO, substrate xanthine, O2, 295 nm) | Ki for oxypurinol relative to Ki for allopurinol (XO; both XO and XDH, allopurinol Ki ref 19)
1 | Oc1ncnc2[nH]ncc12 [Allopurinol] | > 200 | Above 5 μM |  |  |  | 
2 | O=c1[nH]c(=O)c2c[nH]nc2[nH]1 [Oxypurinol] |  |  | 33.75 | 6.35 ± 0.96 | Competitive | about 10 fold

From PMC10511816 (The Journal of Biological Chemistry, 2023)
